From PubChem BioAssay (NCI)
Values joined by “and” are separate entries in the source; they are usually repeats but may differ in a detail not shown here. Identical values can stand only once.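 Five compound concentrations were applied to cells in 96-well plates for 48 hours; endpoints were derived by simple linear interpolation of the resulting dose-response curve. Abbreviation: GI50, concentration required for 50% inhibition of growth. TGI denotes the concentration required for complete inhibition of growth.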

Columns and labels:
Test in all cases: NCI-60 cell line screen, 48 h
786-0 renal = system: 786-0 renal
A549 NSCLC = system: A549 NSCLC
ACHN renal = system: ACHN renal
BT-549 breast = system: BT-549 breast
CAKI-1 renal = system: CAKI-1 renal
CCRF-CEM leukemia = system: CCRF-CEM leukemia
COLO 205 colon = system: COLO 205 colon
DU-145 prostate = system: DU-145 prostate
EKVX NSCLC = system: EKVX NSCLC
HCC-2998 colon = system: HCC-2998 colon
HCT-116 colon = system: HCT-116 colon
HCT-15 colon = system: HCT-15 colon
HOP-62 NSCLC = system: HOP-62 NSCLC
HOP-92 NSCLC = system: HOP-92 NSCLC
HS 578T breast = system: HS 578T breast
HT29 colon = system: HT29 colon
IGROV1 ovarian = system: IGROV1 ovarian
K-562 leukemia = system: K-562 leukemia
KM12 colon = system: KM12 colon
LOX IMVI melanoma = system: LOX IMVI melanoma
M14 melanoma = system: M14 melanoma
MALME-3M melanoma = system: MALME-3M melanoma
MCF7 breast = system: MCF7 breast
MDA-MB-231 breast = system: MDA-MB-231 breast
MDA-MB-435 = system: MDA-MB-435
MOLT-4 leukemia = system: MOLT-4 leukemia
NCI-H23 lung = system: NCI-H23 lung
NCI-H460 lung = system: NCI-H460 lung
NCI-H522 lung = system: NCI-H522 lung
NCI/ADR-RES ovarian = system: NCI/ADR-RES ovarian
OVCAR-3 ovarian = system: OVCAR-3 ovarian
OVCAR-4 ovarian = system: OVCAR-4 ovarian
OVCAR-5 ovarian = system: OVCAR-5 ovarian
OVCAR-8 ovarian = system: OVCAR-8 ovarian
PC-3 prostate = system: PC-3 prostate
RXF 393 renal = system: RXF 393 renal
SF-268 CNS = system: SF-268 CNS
SF-295 CNS = system: SF-295 CNS
SF-539 CNS = system: SF-539 CNS
SK-MEL-2 melanoma = system: SK-MEL-2 melanoma
SK-MEL-28 melanoma = system: SK-MEL-28 melanoma
SK-MEL-5 melanoma = system: SK-MEL-5 melanoma
SK-OV-3 ovarian = system: SK-OV-3 ovarian
SN12C renal = system: SN12C renal
SNB-19 CNS = system: SNB-19 CNS
SNB-75 CNS = system: SNB-75 CNS
SW-620 colon = system: SW-620 colon
T-47D breast = system: T-47D breast
TK-10 renal = system: TK-10 renal
U251 CNS = system: U251 CNS
UACC-257 melanoma = system: UACC-257 melanoma
UACC-62 melanoma = system: UACC-62 melanoma
UO-31 renal = system: UO-31 renal
A498 renal = system: A498 renal
HL-60(TB) leukemia = system: HL-60(TB) leukemia
NCI-H226 lung = system: NCI-H226 lung
SR leukemia = system: SR leukemia

Work on CCN(CC)c1ccc(C2SCC(=O)N2c2ccc(NC(=O)c3ccc(N4C(=O)CSC4c4ccc(N(CC)CC)cc4)cc3)cc2)cc1 (stereo unspecified) yielded a TGI (786-0 renal) of over 100 µM, a TGI (A549 NSCLC) of over 100 µM and a TGI (ACHN renal) of over 100 µM. The TGI (BT-549 breast) was over 100 µM, the TGI (CAKI-1 renal) was over 100 µM and the TGI (CCRF-CEM leukemia) was over 100 µM. For the same compound, the TGI (COLO 205 colon) was over 100 µM, the TGI (DU-145 prostate) was over 100 µM and the TGI (EKVX NSCLC) was over 100 µM. The TGI (HCC-2998 colon) was over 100 µM, the TGI (HCT-116 colon) was over 100 µM and the TGI (HCT-15 colon) was over 100 µM. For the same compound, the TGI (HOP-62 NSCLC) was over 100 µM, the TGI (HOP-92 NSCLC) was over 100 µM and the TGI (HS 578T breast) was over 100 µM. The TGI (HT29 colon) was over 100 µM, the TGI (IGROV1 ovarian) was over 100 µM and the TGI (K-562 leukemia) was over 100 µM. For the same compound, the TGI (KM12 colon) was over 100 µM, the TGI (LOX IMVI melanoma) was over 100 µM and the TGI (M14 melanoma) was over 100 µM. The TGI (MALME-3M melanoma) was over 100 µM, the TGI (MCF7 breast) was over 100 µM and the TGI (MDA-MB-231 breast) was over 100 µM. For the same compound, the TGI (MDA-MB-435) was over 100 µM, the TGI (MOLT-4 leukemia) was over 100 µM and the TGI (NCI-H23 lung) was over 100 µM. The TGI (NCI-H460 lung) was over 100 µM, the TGI (NCI-H522 lung) was over 100 µM and the TGI (NCI/ADR-RES ovarian) was over 100 µM. For the same compound, the TGI (OVCAR-3 ovarian) was over 100 µM, the TGI (OVCAR-4 ovarian) was over 100 µM and the TGI (OVCAR-5 ovarian) was over 100 µM. The TGI (OVCAR-8 ovarian) was over 100 µM, the TGI (PC-3 prostate) was over 100 µM and the TGI (RXF 393 renal) was over 100 µM. It also gave a TGI (SF-268 CNS) of over 100 µM, a TGI (SF-295 CNS) of over 100 µM and a TGI (SF-539 CNS) of over 100 µM. It also gave a TGI (SK-MEL-2 melanoma) of over 100 µM, a TGI (SK-MEL-28 melanoma) of over 100 µM and a TGI (SK-MEL-5 melanoma) of over 100 µM. For the same compound, the TGI (SK-OV-3 ovarian) was over 100 µM, the TGI (SN12C renal) was over 100 µM and the TGI (SNB-19 CNS) was over 100 µM. It also gave a TGI (SNB-75 CNS) of over 100 µM, a TGI (SW-620 colon) of over 100 µM and a TGI (T-47D breast) of over 100 µM. The TGI (TK-10 renal) was over 100 µM, the TGI (U251 CNS) was over 100 µM and the TGI (UACC-257 melanoma) was over 100 µM. For the same compound, the TGI (UACC-62 melanoma) was over 100 µM and the TGI (UO-31 renal) was over 100 µM.
For CCCCCCCCCCCCCCCC[N+](C)(C)CCN(Cc1ccc(OC)cc1)c1ncccn1, the GI50 (A498 renal) was 1.69 µM, the TGI (A498 renal) was 5.21 µM and the GI50 (ACHN renal) was 8.54 µM. For the same compound, the TGI (ACHN renal) was 32.9 µM, the GI50 (BT-549 breast) was 2.43 µM and the TGI (BT-549 breast) was 5.83 µM. The GI50 (CAKI-1 renal) was 8.14 µM, the TGI (CAKI-1 renal) was 34 µM and the GI50 (EKVX NSCLC) was 1.89 µM. It also gave a TGI (EKVX NSCLC) of 7.52 µM, a GI50 (HCT-15 colon) of 18.6 µM and a TGI (HCT-15 colon) of 60.1 µM. The GI50 (HL-60(TB) leukemia) was 1.4 µM and 0.661 µM, the TGI (HL-60(TB) leukemia) was 3.99 µM and 4.79 µM and the GI50 (HOP-62 NSCLC) was 1.54 µM. It also gave a TGI (HOP-62 NSCLC) of 2.95 µM, a GI50 (HS 578T breast) of 1.76 µM and a TGI (HS 578T breast) of 4.4 µM. The GI50 (K-562 leukemia) was 0.838 µM, the TGI (K-562 leukemia) was over 100 µM and the GI50 (LOX IMVI melanoma) was 1.17 µM. It also gave a TGI (LOX IMVI melanoma) of 3.33 µM, a GI50 (MDA-MB-231 breast) of 2 µM and a TGI (MDA-MB-231 breast) of 4.94 µM. For the same compound, the GI50 (NCI-H226 lung) was 2.77 µM, the TGI (NCI-H226 lung) was 14 µM and the GI50 (NCI/ADR-RES ovarian) was 18.7 µM and 3.94 µM. The TGI (NCI/ADR-RES ovarian) was 64 µM and > 100 µM, the GI50 (OVCAR-3 ovarian) was 1.14 µM and the TGI (OVCAR-3 ovarian) was 3.32 µM. It also gave a GI50 (OVCAR-4 ovarian) of 1.85 µM, a TGI (OVCAR-4 ovarian) of 4.88 µM and a GI50 (OVCAR-5 ovarian) of 1.91 µM. The TGI (OVCAR-5 ovarian) was 4.62 µM, the GI50 (RXF 393 renal) was 1.52 µM and 0.821 µM and the TGI (RXF 393 renal) was 3.49 µM and 2.43 µM. For the same compound, the GI50 (SF-268 CNS) was 1.39 µM, the TGI (SF-268 CNS) was 3.74 µM and the GI50 (SK-MEL-2 melanoma) was 2.88 µM. It also gave a TGI (SK-MEL-2 melanoma) of 6.95 µM, a GI50 (SK-MEL-28 melanoma) of 2.1 µM and a TGI (SK-MEL-28 melanoma) of 4.5 µM. The GI50 (SK-MEL-5 melanoma) was 2.68 µM, the TGI (SK-MEL-5 melanoma) was 8.77 µM and the GI50 (SK-OV-3 ovarian) was 2.24 µM. It also gave a TGI (SK-OV-3 ovarian) of 7.24 µM, a GI50 (SNB-75 CNS) of 2.28 µM and a TGI (SNB-75 CNS) of 6.53 µM. For the same compound, the GI50 (SR leukemia) was 1.25 µM, the TGI (SR leukemia) was over 100 µM and the GI50 (T-47D breast) was 1.28 µM. It also gave a TGI (T-47D breast) of 2.98 µM, a GI50 (UACC-257 melanoma) of 5.65 µM and a TGI (UACC-257 melanoma) of 39.8 µM. It also gave a GI50 (UACC-62 melanoma) of 1.75 µM, a TGI (UACC-62 melanoma) of 4.37 µM and a GI50 (UO-31 renal) of 5.65 µM. For the same compound, the TGI (UO-31 renal) was 52.9 µM.
